Measured values published in US9096543B2, “Nuclear transport modulators and uses thereof” (Karyopharm Therapeutics Inc., priority 2012, dated 2015).

Experiments:
[1] = Brain to plasma ratio (B:P) in rats; type: in vivo; conditions: 10 mg/kg po
Procedure: Brain tissue following collection was rinsed with cold saline, dried on filter paper, weighed and snap-frozen by placing on dry ice. All samples were stored frozen at approximately −80° C. until analysis. […] Plasma samples were treated with the identical method (except homogenization step) and concentration of compound in either matrix was calculated based on the generated standard curves.

[2] = Pharmacokinetics (plasma AUC) in rats; type: in vivo; conditions: rat, 10 mg/kg po
[3] = MTT Cell Proliferation Assay (CellTiter 96 AQueous One Solution, MTS); type: cell-based; conditions: human; 72 h treatment; cell line not given; read-out: Cytotoxicity [IC50]
Description: The CellTiter 96® AQueous One Solution cell proliferation assay (Promega) was used on MM1.S, Jurkat and HCT-116 cells to study the cytotoxic and cytostatic properties of the compounds. The assay is based on the cleavage of the tetrazolium salt, MTS, in the presence of an electron-coupling reagent PES (phenazine ethosulfate). The MTS tetrazolium compound is bioreduced by cells into a colored formazan product that is soluble in tissue culture medium. This conversion is presumably accomplished by NADPH or NADH produced by dehydrogenase enzymes in metabolically active cells. Assays are performed by adding a small amount of the CellTiter 96® AQueous One solution reagent directly to culture wells, incubating for 1-4 hours and then recording the absorbance at 490 nm with a 96-well plate reader. […] The cells were seeded at 5×10^3 to 1.5×10^4 cells (depending on cell type) in each well of 96-well plate in 100 μL of fresh culture medium and adherent cells were allowed to attach for overnight. The stock solutions of the compounds were diluted in cell culture medium to obtain eight concentrations of each drug, ranging from 1 nM to 30 μM and DMSO at less than 1% v/v was used as a negative control. After 72 h of treatment 20 μl of CellTiter 96® AQueous reagent was added into each well of the 96-well assay plates and the plate was incubate at 37° C. for 1-4 hours in a humidified, 5% CO2 atmosphere. Then the absorbance of each well was recorded at 490 nm by using a 96-well plate reader. In most cases the assay was performed in triplicates and the results were presented as half maximal inhibitory concentration (IC50) described below. Optical density versus compound concentration was plotted and analyzed using non linear regression equations (Excel Fit) and the IC50 for each compound was calculated.

[4] = molecular target: T1, CRM1 (Homo sapiens, UniProt O14980); test: RevGFP assay: inhibition of CRM1 mediated nuclear export; type: cell-based; conditions: U2OS-RevGFP cells, ~1 hr with compound; read-out: Rev Export [IC50]
T1 construct: endogenous in cells; host or cells: U2OS-RevGFP cells
Procedure: The inhibition of CRM1 mediated nuclear export by compounds of the invention was determined. The inhibitory activity of compounds for the CRM1 protein was determined in the RevGFP assay.
Experimental protocol: Rev is a protein from human immunodeficiency virus type 1 (HIV-1) and contains a nuclear export signal (NES) in its C-terminal domain and a nuclear localization signal (NLS) in its N-terminal domain. Nuclear export of Rev protein is dependent on the classical NES/CRM1 pathway (Neville et al, 1997, Kau et al, 2003). Nuclear accumulation of Rev is observed in cells treated with specific inhibitors of CRM1, such as LMB (Kau et al, 2003). In this assay, U2OS-RevGFP cells are seeded onto clear-bottom, black, 384-well plates the day before the experiment. Compounds are serially diluted 1:2 starting from 40 μM in a separate 384-well plate in DMEM, and then transferred onto cells. Cells are incubated with compound for ˜1 hr before fixation with 3.7% formaldehyde and nuclei staining with Hoechst 33258. The amount of GFP in cell nuclei was measured and compound IC50s were determined (Kau et al, 2003).

[5] = Pharmacokinetics (plasma AUC) in mice; type: in vivo; conditions: mouse, 10 mg/kg po
Procedure: Blood was collected from mice (N=3) to contribute to the total of 10 time points (pre-dose, 5 min, 15 min, 30 min, 1 hour, 2 hours, 4 hours, 8 hours, 12 hours and 24 hours post dose). Mice were bled on a rotating basis, each mouse contributing 3 time points to the blood collection. At the designated time points, animals were anaesthetized under isoflurane, and approximately 110 μL of blood per time point was collected via retro-orbital puncture into pre-cooled K2EDTA (anti-coagulant) tubes. Blood samples were put on wet ice and centrifuged (2000 g, 5 min at 4° C.) to obtain plasma within 30 minutes of sample collection. All samples were stored frozen at approximately −80° C. until analysis. Prior to analysis, samples were mixed with internal standard (dexamethasone) in acetonitrile, vortexed, centrifuged, and supernatant was injected for analysis. Concentration of compounds in plasma was determined using LC-MS-MS instrumentation (API 4000, Triple Quadruple with electrospray ionization; Acuity Ultra Performance Liquid Chromatography column C18, with MeOH and formic acid as organic solvents). PK parameters including but not limited to Tmax, Cmax, t1/2, AUClast, AUCinf were calculated using WinNonlin Professional 6.2 software package, non-compartmental pharmacokinetic model NCA200.

[6] = system: A549 xenograft tumors; test: A549 lung carcinoma xenograft model; type: in vivo, CB-17 SCID mice; conditions: cisplatin 5 mg/kg IP (positive control)
Procedure: The A549 cell line was derived from explant culture of alveolar carcinoma tissue from a person. The cells were grown in Ham's F12-K tissue culture media with 10% fetal calf serum and 1% penicillin/streptomycin. Cells were routinely trypsinized and passaged 1:10. Thirty-two (32) female CB-17 SCID mice (Charles River Labs strain code 236), aged 5 to 6 weeks were used with a mean pre-treatment body weight of 16.3 grams. Mice were divided into four (4) groups of eight (8) prior to the initiation of treatment based on tumor volume. On the day of implantation, cells were washed in PBS, trypsinized and resuspended in complete media to a density of 2×10^7 cells/mL prior to being mixed with an equal volume of Matrigel. This mixture was then inoculated subcutaneously into mice in a volume of 0.1 mL using a 23 G needle.
Animal weights and condition were recorded daily, and tumors were measured on Mondays, Wednesdays and Fridays with micro-calipers, and tumor volume was calculated as (length×width×width)/2.
Animals with weight loss of more than 20% of their starting weight were euthanized. Mice with weight loss of more than 15% of their starting weight were not treated again until weight loss recovered to less than 5% of their starting weight. Any animals with a tumor volume of more than 1500 mm^3 were euthanized.
Dosing solutions were prepared fresh on each day of dosing. Compound 2 was supplied as a lyophilized powder containing 69.61% Compound 2 with the balance made up of Pluronic F-68 and PVP K29/32. This was prepared by dissolving the lyophilized powder in sterile water. Cisplatin was dissolved at 5 mg/mL in DMSO and diluted 1:10 in sterile water for injection. All test articles were administered in a volume of 0.1 mL/10 g body weight.
Statistical differences between treatment groups were determined using Mann-Whitney Rank Sum or ANOVA tests with a critical value of 0.05.

[7] = system: IMQ-induced psoriasis; test: Imiquimod (IMQ)-induced dermal inflammation/psoriasis model (Study 2); type: in vivo, BALB/c mice; conditions: Compound 2 2.5 mg/kg sc, cyclophosphamide 10 mg/kg oral
Procedure: Forty (40) male BALB/c mice (Biological E Limited, Hyderabad (CPCSEA registration number: 36/99/CPCSEA)) were divided into four (4) groups consisting of ten (10) mice each. Animals were randomized based on their body weight. The groups were designated as Group-I (Nave), Group-II (IMQ; vehicle (PEG 400 and HPBCD)), Group-III (IMQ; Compound 2 (2.5 mg/kg)) and […] (IMQ; cyclophosphamide (10 mg/kg)).
A small area on the dorsum of each mouse was shaved, ensuring that these areas were of equal size/area. Psoriasis was induced in Groups II to IV by topical application of 50 mg of IMQ cream daily from Day 1 to Day 6 on the dorsum of the animals. On Day 1 and Day 2 of the study, four hours after topical application of IMQ, Compound 2 or positive control (cyclophosphamide) or vehicle were administered to animals in pertinent groups. Of note, animals in Group II and Group III were subjected to subcutaneous injections, whereas animals in Group IV received oral administration. The Compound 2, vehicle and cyclophosphamide treatment was terminated on Day 2. These groups of animals were maintained on daily IMQ treatments until Day 6. On Day 7, the psoriasis-induced animals were re-randomized into 3 groups consisting of 10 animals each based on Cumulative Disease Activity Index (CDAI). From Day 7 to Day 9, animals received vehicle or positive control or Compound 2. Of note, on these days animals were not treated with IMQ. From Day 10 to Day 14, the animals were treated alternatively with IMQ (Days 10, 12 and 14), or vehicle, positive control or Compound 2 (Days 11, 13).
All animals were observed daily for a period of […] for gross observations, body weight and feed and water intake. On Days 1 and 2, scorings of erythema, scaling, folding and thickening of skin were recorded 2 hours after administration of vehicle/positive control/test compounds, and on Days 3 to 14 scorings were recorded 4 hours after IMQ application, or administration of positive control, vehicle or Compound 2.
Vehicle was prepared by dissolving 40 mg of HPBCD in 70.0 mL of distilled water. Compound 2 was prepared by dissolving 3.59 mg in 0.5% PVP and 0.5% Pluronic. Cyclophosphamide was prepared by dissolving 500 mg of CMC in 100 mL distilled water.
The experimental results shown in Table 10 are expressed as mean±SEM. Data was assessed using one-way ANOVA, and post hoc analysis was performed using Dunnett's test.

T1 sequence (O14980 whole entry): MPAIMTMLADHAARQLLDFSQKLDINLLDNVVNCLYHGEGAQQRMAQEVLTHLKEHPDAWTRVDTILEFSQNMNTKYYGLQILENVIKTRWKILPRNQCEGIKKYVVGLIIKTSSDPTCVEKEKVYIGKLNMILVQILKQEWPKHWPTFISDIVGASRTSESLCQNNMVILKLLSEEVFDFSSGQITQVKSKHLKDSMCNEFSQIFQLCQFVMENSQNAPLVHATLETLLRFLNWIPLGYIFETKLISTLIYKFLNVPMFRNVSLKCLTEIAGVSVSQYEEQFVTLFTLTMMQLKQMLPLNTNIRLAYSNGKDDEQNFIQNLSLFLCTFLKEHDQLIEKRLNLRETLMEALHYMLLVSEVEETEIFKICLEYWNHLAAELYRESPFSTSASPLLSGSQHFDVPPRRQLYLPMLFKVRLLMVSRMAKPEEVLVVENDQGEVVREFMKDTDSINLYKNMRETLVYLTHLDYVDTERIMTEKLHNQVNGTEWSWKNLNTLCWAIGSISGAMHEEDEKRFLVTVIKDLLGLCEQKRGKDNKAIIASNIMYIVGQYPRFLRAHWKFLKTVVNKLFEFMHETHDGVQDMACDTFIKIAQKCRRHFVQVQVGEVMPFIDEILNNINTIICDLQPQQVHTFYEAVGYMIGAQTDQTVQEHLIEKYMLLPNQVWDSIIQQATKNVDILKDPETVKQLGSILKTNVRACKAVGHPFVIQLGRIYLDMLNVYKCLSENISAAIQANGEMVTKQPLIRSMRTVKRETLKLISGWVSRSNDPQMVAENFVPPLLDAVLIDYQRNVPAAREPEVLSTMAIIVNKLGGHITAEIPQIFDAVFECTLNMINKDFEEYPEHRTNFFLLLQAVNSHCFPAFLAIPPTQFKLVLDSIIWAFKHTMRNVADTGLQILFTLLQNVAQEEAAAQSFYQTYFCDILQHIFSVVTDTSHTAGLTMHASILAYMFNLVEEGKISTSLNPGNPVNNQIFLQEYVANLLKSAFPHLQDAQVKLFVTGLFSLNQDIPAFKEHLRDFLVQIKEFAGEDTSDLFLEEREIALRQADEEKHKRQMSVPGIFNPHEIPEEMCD

In the case of CC(C)OC(=O)/C=C\n1cnc(-c2cc(OC(C)C)cc(C(F)(F)F)c2)n1 [Compound X-2], the “B:P” value [1] is reported as “moderate brain to plasma ratio”, the Kp at 2 h ([1]; rat, brain and plasma) is reported as 1.27 and the AUC(0-inf) [2] is reported as 68.3 ng·h/mL. It also gave an IC50 at 72 h [3] of less than 1000 nM and an IC50 [4] of less than 1000 nM.
In the case of O=C(/C=C\n1cnc(-c2cc(C(F)(F)F)cc(C(F)(F)F)c2)n1)N1CC(F)(F)C1 [Compound X-3, reference compound], the AUC(0-inf) [5] is reported as 12300 ng·h/mL, the AUC(0-inf) [2] is reported as 12300 ng·h/mL and the IC50 at 72 h [3] is reported as less than 1000 nM. For the same compound, the IC50 [4] was less than 1000 nM.
With N.N.[Cl][Pt][Cl] [cisplatin, reference compound] the “tumor volume AUC compared to vehicle control (one-way ANOVA)” value [6] was “no statistically significant reduction in tumor growth”.
For O=P1(N(CCCl)CCCl)NCCCO1 (stereo not drawn) [cyclophosphamide, reference compound], the “Rate of reduction of DAI, % change from 1st dose administration” value ([7]; Day 7, pre-IMQ/drug administration readings) was 0.0% and the “Rate of reduction of DAI, % change from 1st dose administration” value ([7]; Day 10, 4 hr. post-IMQ/drug administration readings) was −86.0%.
